Measured values: ChEMBL document CHEMBL4622909, “PARP inhibitor cyanine dye conjugate with enhanced cytotoxic and antiproliferative activity in patient derived glioblastoma cell lines” (Bioorg Med Chem Lett, 2020)
Activity calls are given as the source filed them. The calls are words filed in the database; no cut-off is given here.

Experiments:
GBM [1] = experiment: Cytotoxicity against human patient derived GBM cells assessed as reduction in cell viability measured after 48 hrs by Hoechst staining based assay; type: functional
GBM [2] = experiment: Synergistic cytotoxicity against human patient derived GBM cells assessed as reduction in cell viability measured after 48 hrs in presence of temozolomide by Hoechst staining based assay; type: functional
GBM [3] = experiment: Antiproliferative activity against human patient derived GBM cells assessed as reduction in cell proliferation measured after 48 hrs by Edu incorporation assay; type: functional, cell-based
GBM [4] = experiment: Antiproliferative activity against human patient derived GBM cells assessed as reduction in cell proliferation measured after 48 hrs by Edu incorporation assay relative to compound alone; type: functional
GBM [5] = experiment: cells; type: functional, cell-based; conditions: Homo sapiens, 48 h
Description: Synergistic antiproliferative activity against human patient derived GBM cells assessed as reduction in cell proliferation measured after 48 hrs in presence of temozolomide by Edu incorporation assay

GBM [6] = experiment: Antiproliferative activity against human patient derived GBM cells assessed as reduction in cell proliferation up to 100 uM measured after 48 hrs by Edu incorporation assay; type: functional, cell-based
GBM [7] = experiment: Potency index, ratio of IR-786 IC50 to test compound IC50 for human patient derived GBM cells assessed as reduction in cell viability measured after 48 hrs by Hoechst staining based assay; type: functional
GBM [8] = experiment: Ratio of EC50 for cytotoxicity against human patient derived GBM assessed as reduction in cell viability measured after 48 hrs by Hoechst staining based assay to EC50 for synergistic cytotoxicity against human patient derived GBM assessed as reduction in cell viability measured after 48 hrs in presence of temozolomide by Hoechst staining based assay; type: functional
GBM [9] = experiment: Potency index, ratio of rucaparib IC50 to test compound IC50 for human patient derived GBM cells assessed as reduction in cell viability measured after 48 hrs by Hoechst staining based assay; type: functional
GBM [10] = experiment: Potency index, ratio of IR-786 IC50 to test compound IC50 for synergistic cytotoxicity against human patient derived GBM cells assessed as reduction in cell viability measured after 48 hrs in presence of temozolomide by Hoechst staining based assay; type: functional

IC50 (GBM [5]) | SMILES | EC50 (GBM [1]) | EC50 (GBM [2]) | IC50 (GBM [3]) | Ratio IC50 (GBM [4]) | Activity (GBM [6]) | Ratio IC50 (GBM [7]) | Ratio EC50 (GBM [8]) | Ratio IC50 (GBM [9]) | Ratio IC50 (GBM [10])
2260 nM | CNCc1ccc(-c2[nH]c3cc(F)cc4c3c2CCNC4=O)cc1 [RUCAPARIB] | > 100000 nM | > 100000 nM | 53400 nM | 24 |  |  |  |  | 
 | Cn1nnc2c(C(N)=O)ncn2c1=O |  |  |  |  | inactive |  |  |  | 
20 nM | CN1/C(=C/C=C2\CCCC(/C=C/C3=[N+](C)c4ccccc4C3(C)C)=C2N2CCN(c3ccc(-c4[nH]c5cc(F)cc6c5c4CCNC6=O)cc3)CC2)C(C)(C)c2ccccc21.[I-] | 128 nM | 56 nM | 21 nM | 2 |  | 13.5 | 2 | 780 | 7
